In US8324282B2, “Alkylating agent combinations in the treatment of cancer” (Case Western Reserve University, priority 1999, dated 2012):

Assays:
SW480 cells = test: Colony survival assay, SW480; type: cell-based, human
Description: Chemicals and Reagents. BG was generously provided by Dr. Robert Moschel (Frederick Cancer Research and Development Center, National Cancer Institute). Stock solution was made in dimethylsulfoxide. TMZ and BCNU were obtained from the Drug Synthesis and Chemistry Branch, Drug Therapeutic Program, National Cancer Center Institute. PD128763 was a gift from Park-Davis Pharmaceutical Division. 6-AN, 3-AB, MX and methylmethane sulfonate (MMS) were purchased from Sigma (ST. Louis, Mo.). Stock solutions of PD128763, 3-AB and 6-AN were prepared by dissolving in dimethylsulfoxide and added to cell culture at a final concentration of <1% DMSO, when cells were treated with these compounds. MX was dissolved in sterilized water (pH 7.0). All stock solutions were kept at −20° C. BCNU was prepared fresh in 0.5 ml of 100% ethanol, diluted in PBS, and used with in 10 min. Colony Survival Assay. SW480 cells were obtained from the ATCC. HCT116 cells were obtained from R. Boland, University of Michigan Medical Center. All cell lines were cultured in appropriate growth medium.
Cells (2000/dish) were plated, adhered for 18 hrs and treated with TMZ or
MMS plus or minus modifiers such as […], MX, 6-AN, 3-AB or PD128763, according to experimental protocol. After treatment, cells were washed and fresh medium was replaced. The cells were grown for a further 7 days prior to staining with methylene blue for determination of colonies containing more than 50 cells. Comparisons of drug induced cytotoxicity consisted of a calculation of the dose modification factor (DMF), defined as the ratio of the IC50 of either TMZ or MMS in the absence to that in the presence of indicted modifier(s), i.e., DMF═IC50 for TMZ alone/IC50 for TMZ plus modifier(s).

HCT116 cells [1] = test: Flow cytometry cell cycle distribution and apoptosis, HCT116; type: cell-based, human
[2] = Acute toxicity of MX (i.p.); settings: mice, single injection
Protocol: Three mice per group were injected (i.p.) with MX at doses of 1, 2, 4, 6, 10 and 15 mg/kg for the test of acute toxicity.

HCT116 xenograft = HCT116 xenograft tumor response in nude mice; type: in vivo; settings: HCT116 xenograft; Table 2 doses: TMZ 120, MX 2, MX+TMZ 2/120 mg/kg; daily for 5 days
HCT116 cells [3] = test: Growth inhibition assay (MTT), HCT116; type: cell-based, human; settings: HCT116; MX 6 mM plus H2O2 0-150 μM 1 hr
Protocol: In this experiment, a growth inhibition assay was carried out with H2O2, an oxidizing agent that mimics the effect of chemotherapeutic agents and radiation. Cells in the exponential phase were plated (1×10^4) in 24-well tissue culture plates. After attachment overnight, the cells were incubated with hydrogen peroxide (H2O2) (0-150 μM) or MX (6 mM) plus H2O2 for 1 hr. Five days after treatment, the media was discarded, and 100 μl of MTT (5 mg/ml in PBS) was added in 1 ml fresh media to each well for 4 hrs at 37° C. The MTT solution was then removed, and the formazan crystals were dissolved in 200 μl/well of DMSO for 20 min and changes in absorbance were determined at A540nm. Percentage growth inhibition was calculated by comparison of the A540nm reading from treated versus control cells.
The agents contemplated for combinations with MX in this example are agents which incorporate into DNA and are repaired by BER to form AP sites. Cell-growth inhibition was carried out with HCT116 cells to test MX-potentiated cytotoxicity of iododeoxyuridine (IUdR), which has been recognized as a radiosensitizing agent since the early 1960's.

[4] = tested on: murine bone marrow progenitor cells; test: Colony forming assay, murine bone marrow progenitor cells; type: cell-based, mouse; settings: murine bone marrow progenitor cells; colony forming assay
Description: We observed less myelosuppression and less weight loss using TMZ and MX than using TMZ and BG. […] To test this hypothesis, we conducted in vitro experiments comparing the sensitivity to BG+TMZ and MX+TMZ in colon cancer cell lines with that of mouse bone marrow and human bone marrow cells. […] MX increased TMZ killing by 4 fold in SW480 cells. […] Topoisomerase (Topo) I and Topo II recognize spontaneous AP sites and form stable cleavable complexes. We hypothesized that AP sites formed during repair of TMZ-induced N7 mG and N3 mA adducts would also be recognized by Topo I and Topo II. However since Base Excision Repair [BER] is normally quite efficient, we further hypothesized that the impact of Topo I and Topo II would be most important after MX inhibition of BER; increased unrepaired MX adducted AP sites should increase Topo mediated strand breaks and apoptosis. Therefore, potentiation of TMZ cytotoxicity by MX would be dependent on Topo I and II. […] Lack of Topo I and II results in less cleavable complex formation, fewer double strand DNA breaks, and less apoptosis. We predict a better therapeutic index for the combination of MX/TMZ than observed with BG/TMZ because of the relative overexpression of topoisomerases I and II in malignant cells compared to marrow progenitors.

DEtp cell line = test: DEtp subline of DLD1; type: cell-based; settings: DEtp cell line
Description: We also investigated whether TMZ and MX-induced MX-AP sites may also act as poisons of topoisomerase II α (topo II), producing dual lethal targets. To analyze the effect of MX-AP site on topo II-mediated DNA cleavage, a position-specific MX-AP site was generated on topo II cleavage sites using oligonuleotides for cleavage assay. […] We also found prolonged induction of topo II and remarkable increase in DNA double strand breaks in cells treated with TMZ and MX compared to TMZ alone. Similar results were also observed in cells treated with etoposide but not with N-methyl-maleimide (a catalytic inhibitor of topo II and also an antagonizer of etoposide). Moreover, the potentiation of TMZ by MX was decreased in DEtp cell line that was a subline derived from DLD1 and 5-fold more resistant to etoposide compared to the parental cell line.

[5] = Toxicity evaluation in mice bearing SW480 xenograft; settings: Table 1 doses
Protocol: (§1) Tumors in Nude Mice. Tumor cells (5×10^6) were injected into flanks of female athymic HSD nude mice, at 6-8 weeks of age. The tumors were measured with calipers using the National Cancer Institute formula: V=L(mm)×I^2 (mm)/2 where L is the largest diameter and I is the smallest diameter of the tumor. […] Toxicity Evaluation. Toxicity after treatment was evaluated by body weight measurements and peripheral WBC counting. Body weight was measured three times weekly from the first treatment until 2 weeks after the end of treatment. The weight loss was expressed as a percentage of the initial weight (initial weight−lowest weight/initial weight×100%).

[6] = Toxicity evaluation in mice bearing HCT116 xenograft; settings: Table 2 doses
Protocol: as §1

AP sites in SW480 cells = test: AP sites measured with ARP reagent and S phase in SW480 cells, prolonged MX exposure; settings: MX and TMZ over 72 h
Description: Cell lines used in this study include SW480 (MMR wt, p53 mut), HCT116 (hMLH1 mut, p53 wt) and HCT15 (hMSH6 mut, p53 mut). We measured AP sites using ARP reagent, noting that ARP and MX compete for binding to AP sites. […] It is likely that cytotoxicity elicited by both topol/II inhibitors and MX-AP sites is due to DNA cleavable complexes, and is thus dependent on the level of topo I/II expression.

CON [MX, methoxyamine]
cytotoxicity of MX alone (SW480 cells; SW480, 6 mM MX): nontoxic | DMF / potentiation of MMS cytotoxicity (SW480 cells; SW480, MMS 0-3 mM plus 6 mM MX and/or BG vs MMS alone): 2.0 fold | DMF (IC50 for TMZ alone/IC50 for TMZ plus modifier(s)) (SW480 cells; SW480, modifier(s) plus TMZ vs TMZ alone): 2.4 fold | effect of modifier on BCNU cytotoxicity (SW480 cells; SW480, without BG): No enhancement | potentiation of TMZ cytotoxicity (SW480 cells; SW480 tumor cells, Example 13): 4 fold | effect on cell cycle distribution (HCT116 cells [1]): did not affect | lethal dose [2]: 15 mg/kg | Tumor growth delays (HCT116 xenograft): 2.2 ± 0.4 days | sensitivity to killing induced by H2O2 (HCT116 cells [3]): significantly increased sensitivity | potentiation of TMZ cytotoxicity [4]: no potentiation | potentiation of TMZ by MX (DEtp cell line): decreased | Toxicity (max. BW loss) [5]: 0% | Toxicity (max. BW loss) [6]: 8.3% | AP sites MX bound (AP sites in SW480 cells): 80%
